This assay deals with CCR4 (Homo sapiens (Human), UniProt P51679). The assay can be described thus: Calcium mobilization (Ca Flux) assay. It is filed as cell-based. How it is done:
Calcium Mobilization Assay. Calcium mobilization experiments may be performed by labeling the human T-cell line CEM with […] dye (45 min at room temperature), washing with PBS, and re-suspending into flux buffer (HBSS with 1% FBS).

Where a name gives a salt, the structure may show the parent alone. Read-outs that look alike come from different tables or passages of the source.

Sequence of CCR4 (P51679 whole entry): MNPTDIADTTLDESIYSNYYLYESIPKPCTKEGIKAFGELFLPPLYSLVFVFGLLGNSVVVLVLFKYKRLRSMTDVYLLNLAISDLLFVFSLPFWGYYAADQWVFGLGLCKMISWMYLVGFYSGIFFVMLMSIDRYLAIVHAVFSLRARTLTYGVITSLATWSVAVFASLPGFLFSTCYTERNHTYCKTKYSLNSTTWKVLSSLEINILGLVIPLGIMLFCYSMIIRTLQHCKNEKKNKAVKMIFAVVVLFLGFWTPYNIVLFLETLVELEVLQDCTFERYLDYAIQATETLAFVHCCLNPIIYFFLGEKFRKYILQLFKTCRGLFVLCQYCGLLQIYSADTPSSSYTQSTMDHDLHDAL

As usually defined, the IC50 is the concentration at which inhibition is half-maximal. In the case of `Cc1nn([C@H](C)c2ccc(Cl)cc2Cl)c2nc(N3CC[C@H](N4CCC[C@H]4CCS(N)(=O)=O)[C@H](C)C3)cnc12` [Example 52, 2-((S)-1-((3R,4S)-1-(1-((R)-1-(2,4-Dichlorophenyl)ethyl)-3-methyl-1H-pyrazolo[3,4-b]pyrazin-6-yl)-3-methylpiperidin-4-yl)pyrrolidin-2-yl)ethane-1-sulfonamide hydrochloride], the IC50 was below 100 nM.
Still for that read-out and setting: the result for `Cc1nn([C@H](C)c2ccc(Cl)cc2Cl)c2nc(N3CC[C@@H](N4CCC[C@@H](CCC(=O)O)C4)[C@@H](C)C3)cnc12` [Example 40, 3-((3S,3′S,4′R)-1′-(1-((R)-1-(2,4-Dichlorophenyl)ethyl)-3-methyl-1H-pyrazolo[3,4-b]pyrazin-6-yl)-3′-methyl-[1,4′-bipiperidin]-3-yl)propanoic acid 2,2,2-trifluoroacetate] reads above 500 nM.
On to `Cc1nn([C@H](C)c2ccc(Cl)cc2Cl)c2nc(C3=CCC(N4CCC[C@H]4CCC(=O)O)C(C)C3)cnc12` (stereo in doubt) [Example 72, 3-((S)-1-((1R,6S)-4-(1-((R)-1-(2,4-Dichlorophenyl)ethyl)-3-methyl-1H-pyrazolo[3,4-b]pyrazin-6-yl)-6-methylcyclohex-3-en-1-yl)pyrrolidin-2-yl)propanoic acid hydrochloride], for which, where the note is “hydrochloride”, the half-maximal inhibitory concentration (IC50) was above 500 nM.
With `C[C@@H]1CN(c2cnc3c(C#N)nn([C@H](C)c4ccc(Cl)cc4Cl)c3n2)CC[C@@H]1N1CCC[C@H]1CO` [Example 33, 1-((R)-1-(2,4-Dichlorophenyl)ethyl)-6-((3R,4S)-4-((S)-2-(hydroxymethyl)pyrrolidin-1-yl)-3-methylpiperidin-1-yl)-1H-pyrazolo[3,4-b]pyrazine-3-carbonitrile hydrochloride], the IC50 was below 100 nM.
With `Cc1nn([C@H](C)c2ccc(Cl)cc2Cl)c2nc(N3C[C@@H](C)[C@@H](N4CCCC4)C[C@@H]3C)cnc12` [Example 19, 1-((R)-1-(2,4-Dichlorophenyl)ethyl)-6-((2S,4S,5R)-2,5-dimethyl-4-(pyrrolidin-1-yl)piperidin-1-yl)-3-methyl-1H-pyrazolo[3,4-b]pyrazine hydrochloride], the half-inhibitory concentration (IC50) is 100 to 500 nM.
Take `Cc1nn([C@H](C)c2ccc(Cl)cc2Cl)c2nc(N3CC[C@H](N4CC=CC4)[C@H](C)C3)cnc12` [Example 17, 1-((R)-1-(2,4-Dichlorophenyl)ethyl)-6-((3R,4S)-4-(2,5-dihydro-1H-pyrrol-1-yl)-3-methylpiperidin-1-yl)-3-methyl-1H-pyrazolo[3,4-b]pyrazine hydrochloride]: the concentration for half-maximal inhibition (IC50) is 100 to 500 nM.
Take `Cc1nn([C@H](C)c2ccc(Cl)cc2Cl)c2nc(N3CC[C@H](N4CCC[C@H]4C)[C@H](C)C3)cnc12` [Example 20, 1-((R)-1-(2,4-Dichlorophenyl)ethyl)-3-methyl-6-((3R,4S)-3-methyl-4-((R)-2-methylpyrrolidin-1-yl)piperidin-1-yl)-1H-pyrazolo[3,4-b]pyrazine hydrochloride]: the IC50 was below 100 nM.
For `Cc1nn([C@H](C)c2ccc(Cl)cc2Cl)c2nc(C3=CC[C@H](N4CCC[C@H]4C(N)=O)[C@H](C)C3)cnc12` [Example 86, (S)-1-((1S,6R)-4-(1-((R)-1-(2,4-Dichlorophenyl)ethyl)-3-methyl-1H-pyrazolo[3,4-b]pyrazin-6-yl)-6-methylcyclohex-3-en-1-yl)pyrrolidine-2-carboxamide hydrochloride], the half-maximal inhibitory concentration (IC50) lay within 100 to 500 nM.
For the compound `CC1CC(c2cnc3c(C#N)nn([C@H](C)c4ccc(Cl)cc4Cl)c3n2)=CCC1N1CCC[C@H]1C(N)=O` (stereo partly drawn) [Example 79, (2S)-1-(4-(3-Cyano-1-((R)-1-(2,4-dichlorophenyl)ethyl)-1H-pyrazolo[3,4-b]pyrazin-6-yl)-6-methylcyclohex-3-en-1-yl)pyrrolidine-2-carboxamide hydrochloride], the IC50 is below 100 nM.
The same measure, in the same setting: the result for `C[C@H](c1ccc(Cl)cc1Cl)n1nc(C#N)c2ncc(N3CCC(N4CCCC(CO)C4)CC3)nc21` (stereo partly drawn) [Example 62, 1-((R)-1-(2,4-Dichlorophenyl)ethyl)-6-(3-(hydroxymethyl)-[1,4′-bipiperidin]-1′-yl)-1H-pyrazolo[3,4-b]pyrazine-3-carbonitrile hydrochloride] reads 100 to 500 nM.
Same read-out and setting: the figure for `C[C@@H]1CN(c2cnc3c(C#N)nn([C@H](C)c4ccc(Cl)cc4Cl)c3n2)CC[C@@H]1N1CCC[C@H]1CCC(N)=O` [Example 48, 3-((S)-1-((3R,4S)-1-(3-Cyano-1-((R)-1-(2,4-dichlorophenyl)ethyl)-1H-pyrazolo[3,4-b]pyrazin-6-yl)-3-methylpiperidin-4-yl)pyrrolidin-2-yl)propanamide 2,2,2-trifluoroacetate] is below 100 nM.
On the same count and under the same terms, the figure for `CC1CN(c2cnc3c(C(N)=O)nn([C@H](C)c4ccc(Cl)cc4Cl)c3n2)CCC1N1CCCCC1` (stereo partly drawn) [Example 5, 1-((R)-1-(2,4-Dichlorophenyl)ethyl)-6-(3′-methyl-[1,4′-bipiperidin]-1′-yl)-1H-pyrazolo[3,4-b]pyrazine-3-carboxamide 2,2,2-trifluoroacetate] is 100 to 500 nM; for `C[C@@H]1CN(c2cnc3c(C#N)nn([C@H](C)c4ccc(Cl)cc4Cl)c3n2)CC[C@@H]1N1CCC[C@H]1C(=O)O` [Example 35, ((3R,4S)-1-(3-Cyano-1-((R)-1-(2,4-dichlorophenyl)ethyl)-1H-pyrazolo[3,4-b]pyrazin-6-yl)-3-methylpiperidin-4-yl)-L-proline 2,2,2-trifluoroacetate] it is 100 to 500 nM.
On to `Cc1nn([C@H](C)c2ccc(Cl)cc2Cl)c2nc(N3CCC(N4CCC[C@H]4CC(O)C(=O)O)C(C)C3)cnc12` (stereo partly drawn) [Example 59, 3-((2S)-1-(1-(1-((R)-1-(2,4-Dichlorophenyl)ethyl)-3-methyl-1H-pyrazolo[3,4-b]pyrazin-6-yl)-3-methylpiperidin-4-yl)pyrrolidin-2-yl)-2-hydroxypropanoic acid 2,2,2-trifluoroacetate], for which the half-maximal inhibitory concentration (IC50) lay within 100 to 500 nM.
On to `C[C@@H]1CC(c2cnc3c(C#N)nn([C@H](C)c4ccc(Cl)cc4Cl)c3n2)=CCC1N1CCC[C@H]1C(O)CS(C)(=O)=O` (stereo partly drawn) [Example 87, 1-((R)-1-(2,4-Dichlorophenyl)ethyl)-6-((4S,5R)-4-((2S)-2-(1-hydroxy-2-(methylsulfonyl)ethyl)pyrrolidin-1-yl)-5-methylcyclohex-1-en-1-yl)-1H-pyrazolo[3,4-b]pyrazine-3-carbonitrile hydrochloride], for which the IC50 was below 100 nM.
The same measure, in the same setting: the figure for `Cc1nn([C@H](C)c2ccc(Cl)cc2Cl)c2nc(N3CC(C)C(N4CCCC4)C[C@@H]3C)cnc12` (stereo partly drawn) [Example 18, 1-((R)-1-(2,4-Dichlorophenyl)ethyl)-6-((2S)-2,5-dimethyl-4-(pyrrolidin-1-yl)piperidin-1-yl)-3-methyl-1H-pyrazolo[3,4-b]pyrazine hydrochloride] is 100 to 500 nM; for `C[C@@H]1CN(c2cnc3c(C#N)nn([C@H](C)c4ccc(Cl)cc4Cl)c3n2)CC[C@@H]1N1CCC[C@H]1CCC(=O)O` [Example 43, 3-((S)-1-((3R,4S)-1-(3-Cyano-1-((R)-1-(2,4-dichlorophenyl)ethyl)-1H-pyrazolo[3,4-b]pyrazin-6-yl)-3-methylpiperidin-4-yl)pyrrolidin-2-yl)propanoic acid hydrochloride] it is below 100 nM.
